Among the data in PubChem BioAssay (NCI) are TGI values, retold here.

Among the test systems are MALME-3M melanoma; CAKI-1 renal; OVCAR-3 ovarian; EKVX NSCLC; HOP-92 NSCLC; PC-3 prostate; K-562 leukemia; HL-60(TB) leukemia; NCI-H23 lung; RXF 393 renal; UO-31 renal; OVCAR-4 ovarian; OVCAR-8 ovarian; A498 renal; TK-10 renal.
Experiment in all cases: NCI-60 cell line screen, 48 h

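Test compounds were applied to cells in 96-well plates for 48 hours at 5 doses. TGI marks complete inhibition of growth.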

For the compound `CN(CCc1ccc(N)cc1)[C@H]1CCCC[C@H]1N1CCCC1`, the TGI in the experiment with MALME-3M melanoma, in the experiment on CAKI-1 renal, in the experiment on OVCAR-3 ovarian, with EKVX NSCLC, in the experiment on HOP-92 NSCLC and with PC-3 prostate was over 100 µM each time. In addition, the TGI in the experiment with K-562 leukemia, in the experiment on HL-60(TB) leukemia, with NCI-H23 lung, in the experiment on RXF 393 renal, with UO-31 renal and in the experiment on OVCAR-4 ovarian was over 100 µM throughout. The TGI in the experiment on OVCAR-8 ovarian, with A498 renal and in the experiment with TK-10 renal was over 100 µM in each case.

In the case of `Cc1ccc2c(n1)C(=O)c1ccccc1C2=O`, the TGI in the experiment on MALME-3M melanoma is 23.2 µM; in the experiment with CAKI-1 renal it was over 89.2 µM; in the experiment with OVCAR-3 ovarian, 16.5 µM; with EKVX NSCLC it was 96.3 µM; with HOP-92 NSCLC it was over 100 µM; with PC-3 prostate it was 68.8 µM. Besides, the TGI in the experiment with K-562 leukemia was over 84 µM; with HL-60(TB) leukemia it was 45.7 µM; in the experiment with NCI-H23 lung, 38.1 µM; with RXF 393 renal, 87.2 µM; with UO-31 renal, over 92.7 µM; in the experiment on OVCAR-4 ovarian, 55.4 µM. Also, the values for the TGI in the experiment with OVCAR-8 ovarian, with A498 renal and in the experiment with TK-10 renal were 74.8 µM, over 88.4 µM and over 100 µM, respectively.

For `CN(C)c1ccc(/C=C/C=C(/C#N)c2ccccc2)cc1`, the TGI in the experiment on MALME-3M melanoma is over 100 µM; in the experiment on CAKI-1 renal, over 100 µM; in the experiment with OVCAR-3 ovarian it was 28.5 µM; in the experiment on EKVX NSCLC it was over 100 µM; with HOP-92 NSCLC it was over 100 µM; with PC-3 prostate it was over 100 µM. For the same compound, the TGI with K-562 leukemia is over 38 µM; in the experiment with HL-60(TB) leukemia it was 33 µM; in the experiment with NCI-H23 lung, 97.6 µM; in the experiment on RXF 393 renal, over 79.5 µM; with UO-31 renal it was over 100 µM; in the experiment on OVCAR-4 ovarian, over 65.8 µM. The TGI in the experiment on OVCAR-8 ovarian is over 91.9 µM; in the experiment on A498 renal, 98.5 µM; in the experiment on TK-10 renal it was over 100 µM.

As for `COC(=O)/N=[N+](\[O-])C(c1ccc(OC)cc1)C1CCCCC1` (stereo not drawn), the TGI was 11.8 µM in the experiment with MALME-3M melanoma; 10.3 µM in the experiment on CAKI-1 renal; 33.2 µM in the experiment on OVCAR-3 ovarian; over 44.1 µM with EKVX NSCLC; 36.8 µM in the experiment on HOP-92 NSCLC; 22.5 µM in the experiment on PC-3 prostate. Moreover, the TGI was 44.8 µM in the experiment with K-562 leukemia; 2.78 µM in the experiment on HL-60(TB) leukemia; 22.6 µM with NCI-H23 lung; 28.3 µM in the experiment on RXF 393 renal; 21.5 µM in the experiment on UO-31 renal; over 100 µM in the experiment with OVCAR-4 ovarian. Also, the TGI with OVCAR-8 ovarian turned out to be 38.3 µM; in the experiment with A498 renal, 25.3 µM; in the experiment on TK-10 renal, 25.9 µM.

In the case of `CC(C)C1OC(=O)/C=C/C=C/C=C/C=C/C=C/CC(O)CC(O)CC(O)CC(O)CC(O)CC(O)CC(O)CC(O)/C=C/C1C` (stereo not drawn), the TGI with MALME-3M melanoma, with CAKI-1 renal, in the experiment with OVCAR-3 ovarian, in the experiment on EKVX NSCLC, in the experiment on HOP-92 NSCLC and in the experiment with PC-3 prostate was over 100 µM in each case. The TGI in the experiment with K-562 leukemia, in the experiment with HL-60(TB) leukemia, in the experiment with NCI-H23 lung, with RXF 393 renal, in the experiment with UO-31 renal and in the experiment with OVCAR-4 ovarian was over 100 µM throughout. For the same compound, the TGI with OVCAR-8 ovarian, in the experiment on A498 renal and in the experiment with TK-10 renal was over 100 µM throughout.

Take `COc1ccccc1N1CCN(Cn2c(=O)oc3cccnc32)CC1`: the TGI in the experiment with MALME-3M melanoma, with CAKI-1 renal, in the experiment on OVCAR-3 ovarian, in the experiment on EKVX NSCLC, in the experiment with HOP-92 NSCLC and with PC-3 prostate was over 100 µM each time. In addition, the TGI in the experiment on K-562 leukemia, with HL-60(TB) leukemia, with NCI-H23 lung, in the experiment with RXF 393 renal, in the experiment with UO-31 renal and in the experiment with OVCAR-4 ovarian was over 100 µM in each case. Moreover, the TGI with OVCAR-8 ovarian, in the experiment on A498 renal and with TK-10 renal was over 100 µM in each case.

Turning to `CSC1=C(c2ccc(Cl)cc2)SC(N2CCCCC2)N1c1ccc([N+](=O)[O-])cc1` (stereo not drawn), the TGI in the experiment with MALME-3M melanoma was over 100 µM; with CAKI-1 renal it was over 100 µM; with OVCAR-3 ovarian it was 58.1 µM; in the experiment with EKVX NSCLC it was over 100 µM; with HOP-92 NSCLC it was 72.3 µM; in the experiment on PC-3 prostate it was 63.4 µM. Besides, the TGI in the experiment with K-562 leukemia is over 100 µM; with HL-60(TB) leukemia it was 97.4 µM; with NCI-H23 lung, 85.2 µM; in the experiment on RXF 393 renal, over 100 µM; in the experiment with UO-31 renal, over 100 µM; in the experiment on OVCAR-4 ovarian it was over 100 µM. The TGI in the experiment on OVCAR-8 ovarian is 93.7 µM; in the experiment on A498 renal, 73.2 µM; in the experiment on TK-10 renal it was over 100 µM.

For the compound `CCC(CCCC[C@@H]1CC[C@H]2CC(=O)C[C@@H]12)OC` (stereo partly drawn), the TGI in the experiment on MALME-3M melanoma, in the experiment with CAKI-1 renal, with OVCAR-3 ovarian, in the experiment with EKVX NSCLC, in the experiment with HOP-92 NSCLC and in the experiment on PC-3 prostate was over 100 µM throughout. Also, the TGI in the experiment on K-562 leukemia, in the experiment with HL-60(TB) leukemia, in the experiment on NCI-H23 lung, in the experiment on RXF 393 renal, in the experiment on OVCAR-4 ovarian and in the experiment on OVCAR-8 ovarian was over 100 µM throughout. Besides, the TGI in the experiment on A498 renal and in the experiment on TK-10 renal was over 100 µM each time.

In the case of `Cc1ccc(N=C2C(=O)C3=C(OC(C)(C)CC3)c3ccccc32)cc1`, the TGI stood at 1.7 µM with MALME-3M melanoma; 3.16 µM in the experiment on CAKI-1 renal; 0.589 µM in the experiment on OVCAR-3 ovarian; 3.35 µM with EKVX NSCLC; 3.2 µM with HOP-92 NSCLC; 3.52 µM in the experiment with PC-3 prostate. In addition, the TGI in the experiment on K-562 leukemia worked out at 0.86 µM; in the experiment on HL-60(TB) leukemia, 3.21 µM; in the experiment with NCI-H23 lung, 6.88 µM; with RXF 393 renal, 3.12 µM; in the experiment on UO-31 renal, 1.96 µM; in the experiment on OVCAR-4 ovarian it was 2.18 µM. Besides, the TGI with A498 renal is 3.81 µM; in the experiment with TK-10 renal it was 4.86 µM.
